Source: paper PMC4412285, “Broadening the repertoire of melanoma-associated T-cell epitopes” (Cancer Immunology, Immunotherapy : CII, 2015)

Experiments:
[1] = biological target: T1, HLA-A11 (Homo sapiens, UniProt P04439, A114D/F33Y/S129P); assay: MHC ELISA after UV light-mediated peptide exchange; type: binding; parameters: key: 1 = confirm ed ligand; settings: MHC rescue after UV-induced peptide exchange, absorbance normalized to control ligand HLA-A11/EBV EBNA4AVF, selected if above 0.90 of control in either of two experiments, duplicates
T1 construct: made in house; host or cells: Escherichia coli

[2] = biological target: T2, HLA-A3 (Homo sapiens, UniProt P04439); assay: MHC ELISA after UV light-mediated peptide exchange; type: binding; parameters: key: 1 = confirm ed ligand; settings: MHC rescue after UV-induced peptide exchange, absorbance normalized to control ligand HLA-A3/FLU NPILR, selected if above 0.63 and 0.50 of control, respectively, in either of two experiments, duplicates
T2 construct: made in house; host or cells: Escherichia coli

[3] = tested on: T2-A3 cells; assay: 51Chromium-release cytotoxicity assay, peptide-pulsed T2-A3 cells; type: cell-based, human; settings: 51Cr release, no lysis of T2A3 cells pulsed with an irrelevant peptide (Supplementary Figure 5)
[4] = tested on: melanoma cell lines FM3 (HLA-A3+gp100+) and FM28 (HLA-A3-gp100+); assay: 51Chromium-release cytotoxicity assay, melanoma cell lines; type: cell-based, human; settings: 51Cr release, 4 h
Protocol: To measure the ^51Chromium-release, 5 × 10^5 target cells in 100 µl R10 were labeled with ^51Cr (100 µCi; Amersham, Arlington Heights, IL) and pulsed with peptide at 37 °C for 1 h when indicated. The washed target cells were incubated with effector cells at various effector/target ratios in 96-well plates at 37 °C for 4 h before 100 µl of medium was aspirated and the ^51Cr release counted in a gamma counter (Wallac Wizard 1470 Automatic Gamma Counter, Perkin Elmer). The maximum ^51Cr release was determined in separate wells by adding 100 µl of 10 % Triton X-100, and the spontaneous release was determined by adding 100 µl of R10 to target cells only. […] The target cells were melanoma cell lines FM3 (HLA-A3^+gp100^+) and FM28 (HLA-A3^−gp100^+).

[5] = tested on: mRNA-electroporated, HLA-transduced K562 cells; assay: VITAL-Far Red cytotoxicity assay; type: cell-based, human
Protocol: The HLA-transduced K562 cells (kindly provided by Mirjam M.H. Heemskerk, Leiden University Medical Centre, the Netherlands) were transfected as previously described with minor modifications. Briefly, HLA-transduced K562 cells were washed twice, resuspended in phosphate-buffered saline (Invitrogen, Life Technologies, Naerum, Denmark) and adjusted to a final cell density of 4 × 10^7 cells/ml. The cell suspensions (400 μl) were pre-incubated in a 2-mm gap electroporation cuvette for 5 min on ice. mRNA encoding melanoma-associated antigens, gp100: 5.7 μg; tyrosinase: 6.7 μg; TRP-2: 8.9 μg, was used to transfect HLA-transduced K562 cells using a BTX 830 square-wave electroporator (Harvard Apparatus, Holliston MA, USA). The electroporation settings were adjusted to 6 pulses at 560 V for 99 μs. After electroporation, the K562 cells were transferred to preheated R10 medium and rested for 1 h, 37 °C in 5 % CO2. The following cells were obtained: K562/HLA-A3/gp100, K562/HLA-A3/tyrosinase, K562/HLA-A11/gp100 and K562/HLA-B7/TRP-2. Reverse Transcriptase PCR confirmed the presence of mRNA after 4, 8 and 24 h of resting at 37 °C.
This ‘in vivo/in vitro technique for assessing cell lysis’ (VITAL)-Far Red assay has been described elsewhere. Briefly, HLA-transduced K562 cells electroporated with relevant mRNA were marked with 10 μM carboxyfluorescein succinimidyl ester (CFSE, Invitrogen, Life Technologies, Naerum, Denmark) and incubated for 5 min at 37 °C in 5 % CO2; these cells were used as positive target cells. Transduced and not electroporated K562 cells were marked with 5 μM Far Red (Invitrogen, Life Technologies, Naerum, Denmark) and incubated for 5 min at 37 °C in 5 % CO2; these cells were used as negative control cells. The target cells and negative control cells were mixed at a ratio of 1:1, 2,000 cells/well in total, in 100 µl R10 in a 96-well plate (Corning Costar, BD Biosciences, Albertslund, Denmark). Specific T cells (effector cells) were added at different ratios to this target cells mixture in 100 μl R10. The cytotoxicity against the positive target cells was measured relative to the cytotoxicity against the negative control cells in the same mixture after 48-h incubation at 37 °C in 5 % CO2. Also, a data point without the addition of the effector T cells was included. All measurements were performed in quadruplicate and repeated to confirm the data.

Sequence: LIYRRRLMK
- Confirmed ligand [1]: 1
- Confirmed ligand [2]: 1
- Killing of T2-A3 cells pulsed with the peptide by T cells with matching specificity ([3]; listed as gp100_614-622): specifically killed
- Killing of T2-A3 cells pulsed with the peptide by T cells with matching specificity ([3]; listed as gp100614-22): Specific lysis
- Cold target inhibition of FM3 killing by T2-A3 cells pulsed with the peptide ([4]; not affected by T2-A3 cells pulsed with an irrelevant peptide (Fig. 3e)): specifically inhibited
- T cell-mediated killing of melanoma cell lines FM3 and FM28 ([4]; HLA-A3-restricted specific T cells, 37 °C (Fig. 3d)): selective killing of the HLA-A3-positive melanoma cell line FM3
- Validation of epitope processing in electroporated, HLA-transduced K562 cells ([5]; HLA-A3, 48 h co-culture with specific T cells, 37 °C): Yes
- T cell-mediated killing of antigen-transfected HLA-transduced K562 cells ([5]; HLA-A3, relative to non-transfected HLA-transduced K562 cells, 48 h, increasing effector:target ratios (Fig. 3a, b)): antigen-specific and effector:target ratio-dependent killing of target cells
